Data published in ChEMBL document CHEMBL4715697, “Synthesis and biological activity of benzamide DNA minor groove binders” (2016).

Experiments:
Malme-3M = experiment: Growth inhibition of human Malme-3M cells assessed as cell growth at 10 uM incubated for 48 hrs by sulforhodamine B assay relative to control; assay type: functional; details: read-out: Activity
MDA-MB-435 = experiment: Growth inhibition of human MDA-MB-435 cells assessed as cell growth at 10 uM incubated for 48 hrs by sulforhodamine B assay relative to control; assay type: functional; details: read-out: Activity
RPMI-8226 = experiment: Growth inhibition of human RPMI-8226 cells assessed as cell growth at 10 uM incubated for 48 hrs by sulforhodamine B assay relative to control; assay type: functional; details: read-out: Activity
UACC-62 = experiment: Growth inhibition of human UACC-62 cells assessed as cell growth at 10 uM incubated for 48 hrs by sulforhodamine B assay relative to control; assay type: functional; details: read-out: Activity
SN12C = experiment: Growth inhibition of human SN12C cells assessed as cell growth at 10 uM incubated for 48 hrs by sulforhodamine B assay relative to control; assay type: functional; details: read-out: Activity
CCRF-CEM = experiment: Growth inhibition of human CCRF-CEM cells assessed as cell growth at 10 uM incubated for 48 hrs by sulforhodamine B assay relative to control; assay type: functional; details: read-out: Activity
SNB-19 = experiment: Growth inhibition of human SNB-19 cells assessed as cell growth at 10 uM incubated for 48 hrs by sulforhodamine B assay relative to control; assay type: functional; details: read-out: Activity
NCI-H460 = experiment: Growth inhibition of human NCI-H460 cells assessed as cell growth at 10 uM incubated for 48 hrs by sulforhodamine B assay relative to control; assay type: functional; details: read-out: Activity
SR = experiment: Growth inhibition of human SR cells assessed as cell growth at 10 uM incubated for 48 hrs by sulforhodamine B assay relative to control; assay type: functional; details: read-out: Activity
SK-MEL-2 = experiment: Growth inhibition of human SK-MEL-2 cells assessed as cell growth at 10 uM incubated for 48 hrs by sulforhodamine B assay relative to control; assay type: functional; details: read-out: Activity
RXF 393 = experiment: Growth inhibition of human RXF 393 cells assessed as cell growth at 10 uM incubated for 48 hrs by sulforhodamine B assay relative to control; assay type: functional; details: read-out: Activity
COLO 205 = experiment: Growth inhibition of human COLO 205 cells assessed as cell growth at 10 uM incubated for 48 hrs by sulforhodamine B assay relative to control; assay type: functional; details: read-out: Activity
U-251 = experiment: Growth inhibition of human U-251 cells assessed as cell growth at 10 uM incubated for 48 hrs by sulforhodamine B assay relative to control; assay type: functional; details: read-out: Activity
OVCAR-4 = experiment: Growth inhibition of human OVCAR-4 cells assessed as cell growth at 10 uM incubated for 48 hrs by sulforhodamine B assay relative to control; assay type: functional; details: read-out: Activity
SK-MEL-28 = experiment: Growth inhibition of human SK-MEL-28 cells assessed as cell growth at 10 uM incubated for 48 hrs by sulforhodamine B assay relative to control; assay type: functional; details: read-out: Activity
ACHN = experiment: Growth inhibition of human ACHN cells assessed as cell growth at 10 uM incubated for 48 hrs by sulforhodamine B assay relative to control; assay type: functional; details: read-out: Activity
[1] = tested on: Poly(dA-dT)oligonucleotide; experiment: Displacement of ethidium bromide from minor groove of poly(dA:dT) dsDNA (unknown origin) by fluorescence spectrophotometry; assay type: nucleic-acid assay
[2] = tested on: Poly(dA-dT)oligonucleotide; experiment: Binding affinity to minor groove of poly(dA:dT) dsDNA (unknown origin) assessed as change in melting temperature by UV-vis spectrophotometry based DNA melting assay; assay type: nucleic-acid assay
Hs-578T = experiment: Growth inhibition of human Hs-578T cells assessed as cell growth at 10 uM incubated for 48 hrs by sulforhodamine B assay relative to control; assay type: functional; details: read-out: Activity
SF-295 = experiment: Growth inhibition of human SF-295 cells assessed as cell growth at 10 uM incubated for 48 hrs by sulforhodamine B assay relative to control; assay type: functional; details: read-out: Activity
A498 = experiment: Growth inhibition of human A498 cells assessed as cell growth at 10 uM incubated for 48 hrs by sulforhodamine B assay relative to control; assay type: functional; details: read-out: Activity

CC(=O)Nc1cccc(NC(=O)c2ccc(C(=O)Nc3cc(CO)cc(NC(C)=O)c3)cc2)c1 was tested, and the growth at 10 µM (Malme-3M) was 107%, the growth at 10 µM (MDA-MB-435) was 105% and the growth at 10 µM (RPMI-8226) was 92%. For the same molecule, the growth at 10 µM (UACC-62) was 101%, the growth at 10 µM (SN12C) was 106% and the growth at 10 µM (CCRF-CEM) was 93%. It also gave a growth at 10 µM (SNB-19) of 112%, a growth at 10 µM (NCI-H460) of 112% and a growth at 10 µM (SR) of 104%. The growth at 10 µM (SK-MEL-2) was 88.1%, the growth at 10 µM (RXF 393) was 106% and the growth at 10 µM (COLO 205) was 111%. It also gave a growth at 10 µM (U-251) of 111%, a growth at 10 µM (OVCAR-4) of 68.7% and a growth at 10 µM (SK-MEL-28) of 111%. It also gave a growth at 10 µM (ACHN) of 106%.
CCN(CC)CC(=O)Nc1cccc(C(=O)Nc2cc(CO)cc(NC(C)=O)c2)c1 showed a growth at 10 µM (Malme-3M) of 102%, a C50 [1] of over 1 mM and a growth at 10 µM (MDA-MB-435) of 110%. The growth at 10 µM (UACC-62) was 106%, the growth at 10 µM (SN12C) was 112% and the growth at 10 µM (CCRF-CEM) was 97.2%. The ΔTm [2] was 8.7 °C, the growth at 10 µM (SNB-19) was 105% and the growth at 10 µM (NCI-H460) was 104%. The growth at 10 µM (SK-MEL-2) was 99.8%, the growth at 10 µM (RXF 393) was 102% and the growth at 10 µM (COLO 205) was 112%. It also gave a growth at 10 µM (U-251) of 103%, a growth at 10 µM (Hs-578T) of 130% and a growth at 10 µM (SK-MEL-28) of 112%. For the same molecule, the growth at 10 µM (ACHN) was 105% and the growth at 10 µM (SF-295) was 87%.
Work on CC(=O)Nc1cccc(NC(=O)c2ccc(C(=O)Nc3cc(CCl)cc(NC(C)=O)c3)cc2)c1 yielded a growth at 10 µM (Malme-3M) of 99.6%, a growth at 10 µM (MDA-MB-435) of 108% and a growth at 10 µM (RPMI-8226) of 98.8%. The growth at 10 µM (UACC-62) was 98.3%, the growth at 10 µM (SN12C) was 102% and the growth at 10 µM (CCRF-CEM) was 90.8%. The growth at 10 µM (SNB-19) was 104%, the growth at 10 µM (NCI-H460) was 112% and the growth at 10 µM (SR) was 103%. The growth at 10 µM (SK-MEL-2) was 100%, the growth at 10 µM (RXF 393) was 114% and the growth at 10 µM (COLO 205) was 108%. For the same molecule, the growth at 10 µM (U-251) was 113%, the growth at 10 µM (OVCAR-4) was 119% and the growth at 10 µM (Hs-578T) was 114%. For the same molecule, the growth at 10 µM (SK-MEL-28) was 115% and the growth at 10 µM (ACHN) was 109%.
Molecule CCN(CC)CC(=O)Nc1ccc(C(=O)Nc2cc(CO)cc(NC(C)=O)c2)cc1 has a growth at 10 µM (Malme-3M) of 103%, a growth at 10 µM (MDA-MB-435) of 96.3% and a growth at 10 µM (RPMI-8226) of 126%. The growth at 10 µM (UACC-62) was 97%, the growth at 10 µM (SN12C) was 103% and the growth at 10 µM (CCRF-CEM) was 98.2%. For the same molecule, the ΔTm [2] was 10.2 °C, the growth at 10 µM (SNB-19) was 98% and the growth at 10 µM (NCI-H460) was 109%. It also gave a growth at 10 µM (SK-MEL-2) of 107%, a growth at 10 µM (RXF 393) of 110% and a growth at 10 µM (COLO 205) of 118%. The growth at 10 µM (U-251) was 108%, the growth at 10 µM (SK-MEL-28) was 116% and the growth at 10 µM (ACHN) was 108%. It also gave a growth at 10 µM (SF-295) of 136%.
Work on CC(=O)Nc1cc(CO)cc(NC(=O)c2ccccc2)c1 yielded a growth at 10 µM (Malme-3M) of 109%, a growth at 10 µM (MDA-MB-435) of 105% and a growth at 10 µM (RPMI-8226) of 106%. It also gave a growth at 10 µM (UACC-62) of 104%, a growth at 10 µM (SN12C) of 119% and a growth at 10 µM (CCRF-CEM) of 110%. It also gave a growth at 10 µM (SNB-19) of 106%, a growth at 10 µM (NCI-H460) of 104% and a growth at 10 µM (SR) of 107%. It also gave a growth at 10 µM (SK-MEL-2) of 111%, a growth at 10 µM (RXF 393) of 119% and a growth at 10 µM (A498) of 91.6%. For the same molecule, the growth at 10 µM (COLO 205) was 115%, the growth at 10 µM (U-251) was 99.4% and the growth at 10 µM (OVCAR-4) was 111%. It also gave a growth at 10 µM (Hs-578T) of 105%, a growth at 10 µM (SK-MEL-28) of 109% and a growth at 10 µM (ACHN) of 109%. For the same molecule, the growth at 10 µM (SF-295) was 108%.
With CC(=O)Nc1cc(CO)cc(NC(=O)c2ccc(C(=O)NCCCN3CCOCC3)cc2)c1 the growth at 10 µM (Malme-3M) was 106%, the growth at 10 µM (MDA-MB-435) was 103% and the growth at 10 µM (RPMI-8226) was 95.3%. It also gave a growth at 10 µM (UACC-62) of 101%, a growth at 10 µM (SN12C) of 104% and a growth at 10 µM (CCRF-CEM) of 94.9%. For the same molecule, the growth at 10 µM (SNB-19) was 107%, the growth at 10 µM (NCI-H460) was 111% and the growth at 10 µM (SR) was 94.1%. It also gave a growth at 10 µM (SK-MEL-2) of 94.3%, a growth at 10 µM (RXF 393) of 108% and a growth at 10 µM (COLO 205) of 106%. It also gave a growth at 10 µM (U-251) of 99.5%, a growth at 10 µM (OVCAR-4) of 67.9% and a growth at 10 µM (SK-MEL-28) of 102%. It also gave a growth at 10 µM (ACHN) of 108%.
CC(=O)Nc1cc(CO)cc(NC(=O)c2ccc(C(=O)Nc3cc(CO)cc(NC(C)=O)c3)cc2)c1 gave a growth at 10 µM (Malme-3M) of 113%, a growth at 10 µM (MDA-MB-435) of 102% and a growth at 10 µM (RPMI-8226) of 94.5%. For the same molecule, the growth at 10 µM (UACC-62) was 103%, the growth at 10 µM (SN12C) was 97.4% and the growth at 10 µM (CCRF-CEM) was 87.4%. For the same molecule, the growth at 10 µM (SNB-19) was 102%, the growth at 10 µM (NCI-H460) was 107% and the growth at 10 µM (SR) was 106%. It also gave a growth at 10 µM (SK-MEL-2) of 93.3%, a growth at 10 µM (RXF 393) of 103% and a growth at 10 µM (COLO 205) of 109%. The growth at 10 µM (U-251) was 112%, the growth at 10 µM (Hs-578T) was 101% and the growth at 10 µM (SK-MEL-28) was 117%. It also gave a growth at 10 µM (ACHN) of 109% and a growth at 10 µM (SF-295) of 96.8%.
